One data set addresses MNK1 (Homo sapiens, UniProt Q9BUB5). Description: MNK1 substrate phosphorylation assay. The class given is biochemical. The conditions noted are these: recombinant human kinase.
The target of the next data set is MNK2 (Homo sapiens, UniProt Q9HBH9). The experiment in a line: MNK2 substrate phosphorylation assay. The format is biochemical. Conditions: recombinant human kinase.
The next data set relates to P-gp (human MDR1, ABCB1). Description: MDCK-MDR1 permeability (blood brain barrier permeability). The format is in vitro ADME, Canine. Conditions: dog.
In the next data set the test system is eIF4E phosphorylation. Description: In vivo eIF4E phosphorylation in different tissues (Western blot), 4ET-01-021. More on the design: species or system mice. The conditions noted are these: PO 10 mg/kg. From the text: However, 4ET-01-021 minimally-inhibited phosphorylation of eIF4E in the brain, as determined by Western blot analysis of brain tissue from the cortex.

Data set [1] relates to eIF4E phosphorylation at Serine 209 in the human embryonic kidney (HEK) 293 cell line. Description: eIF4E phosphorylation in HEK 293 cells (fluorescent plate reader). The conditions noted are these: Homo sapiens, HEK293, 2 h, eIF4E phosphorylation at Serine 209, 2 hours exposure. The format is cell-based. The method, boiled down: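 HEK-293 cells were treated with compound for 2 h, then methanol-fixed and Triton-permeabilized. Ser209 phospho-eIF4E was stained with primary antibody (1:2000, overnight) and an Alexa Fluor 488 secondary. Fluorescence was normalized to DAPI, and IC50 was fitted from concentration-response data.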

Data set [2] in a line: Brain to plasma ratio, 4ET-01-021 at 3.0 mg/kg PO. The format is in vivo, male CD-1 mouse. The conditions noted are these: for concentration at 2 h: oral, 3 mg/kg.
Data set [3] is described as follows: Liver microsome stability, mouse. The format is in vitro ADME. Conditions: mouse, liver microsomes, mouse liver microsomes, Table 11b; read-out: T1/2.

As a reminder, the IC50 is the concentration at which inhibition is half-maximal. The Papp A→B is the apparent permeability from the apical to the basolateral side of a cell layer. Lower therefore signals slow passage. By Papp B→A is commonly meant the apparent permeability from the basolateral to the apical side of a cell layer.

Several values for one entry are separate records, joined by “and”; a condition that tells them apart may be missing. Equal entries are not always repeated. Where two headings read alike, the source gives them in different places.

MNK2, sequence (Q9HBH9 whole entry): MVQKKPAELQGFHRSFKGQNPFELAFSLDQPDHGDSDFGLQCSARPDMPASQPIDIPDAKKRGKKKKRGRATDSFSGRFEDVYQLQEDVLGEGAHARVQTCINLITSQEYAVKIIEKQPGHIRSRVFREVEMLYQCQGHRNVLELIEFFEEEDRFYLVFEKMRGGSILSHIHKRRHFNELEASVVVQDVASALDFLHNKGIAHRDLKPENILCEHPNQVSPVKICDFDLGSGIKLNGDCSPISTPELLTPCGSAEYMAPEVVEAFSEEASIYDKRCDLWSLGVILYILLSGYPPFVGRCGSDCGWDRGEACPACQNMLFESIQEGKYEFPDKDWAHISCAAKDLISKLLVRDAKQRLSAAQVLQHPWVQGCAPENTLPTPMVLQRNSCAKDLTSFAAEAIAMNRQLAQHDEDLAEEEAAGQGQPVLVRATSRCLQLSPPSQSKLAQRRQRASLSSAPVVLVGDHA
MNK1, sequence (Q9BUB5 whole entry): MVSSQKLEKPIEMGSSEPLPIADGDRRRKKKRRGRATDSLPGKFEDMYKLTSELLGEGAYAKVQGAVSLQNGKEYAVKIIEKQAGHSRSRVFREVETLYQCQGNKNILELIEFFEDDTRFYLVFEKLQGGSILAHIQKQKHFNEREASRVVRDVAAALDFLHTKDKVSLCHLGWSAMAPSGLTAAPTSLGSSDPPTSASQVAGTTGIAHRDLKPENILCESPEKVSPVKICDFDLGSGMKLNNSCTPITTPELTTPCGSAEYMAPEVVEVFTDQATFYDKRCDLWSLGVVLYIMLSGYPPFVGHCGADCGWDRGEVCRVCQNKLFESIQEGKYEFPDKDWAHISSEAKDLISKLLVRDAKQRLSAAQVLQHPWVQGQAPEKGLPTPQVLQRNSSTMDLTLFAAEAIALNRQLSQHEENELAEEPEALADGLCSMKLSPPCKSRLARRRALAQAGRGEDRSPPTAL

Consider `CCC1=CC2(CCC1)NC(=O)c1c(C)cc(Nc3cc(N)ncn3)c(=O)n12` (centres unmarked) [Compound 4ET-01-021, 6′-((6-Aminopyrimidin-4-yl)amino)-3-ethyl-8′-methyl-2′H-spiro[cyclohexane-1,3′-imidazo[1,5-a]pyridin]-2-ene-1′,5′-dione], for which the IC50 on MNK1 was determined as 38.7 nM; on MNK2, 5.8 nM; in data set [1], 6 nM. The efflux ratio at 5 μM in the data set with P-gp (human MDR1, ABCB1) (MDCK-MDR1, 5 μM, read-out: Efflux ratio (ratio B-A/A-B)) is 0.9. This compound also had a Papp A→B at 5 μM in the data set on P-gp (human MDR1, ABCB1) (MDCK-MDR1, Apical to basolateral transport, 5 μM, average of two experiments) of 55.3 ×10⁻⁶ cm/s. Moreover, the Papp B→A at 5 μM in the data set with P-gp (human MDR1, ABCB1) (MDCK-MDR1, Basolateral to apical transport, 5 μM, average of two experiments) was 52 ×10⁻⁶ cm/s. In addition, the “eIF4E phosphorylation in the brain (cortex)” value in the data set with eIF4E phosphorylation was “minimally-inhibited”. For the same compound, the “eIF4E phosphorylation in DRGs, sciatic nerve, and spleen” value with eIF4E phosphorylation (2 hours or 4 hours post dose) is recorded as “significant inhibition of eIF4E phosphorylation”. Besides, the “Tissue Homogenate Concentration” value in data set [2] (2 hr, Brain, individual) is 17.6 ng/mL and 12.2 ng/mL. Besides, the “Plasma Concentration” value in data set [2] (2 hr, Plasma, individual) is 462 ng/mL and 383 ng/mL. In data set [2] (male, CD-1, mouse, 2 h post dosing, Brain, read-out: Mean tissue/plasma concentration ratio (B:P ratio)), the Kp at 2 h is 0.142. The concentration at 2 h came out at 14.8 ng/mL in data set [2] (male, CD-1, mouse, brain homogenate, 2 h, Brain, read-out: Mean (brain homogenate)); 14.5 ng/mL in data set [2] (male, CD-1, mouse, brain homogenate, 2 hr, Brain, individual, read-out: Tissue Homogenate Concentration); 59.1 ng/g in data set [2] (male, CD-1, mouse, brain, 2 h, Brain, read-out: Mean Tissue); 416 ng/mL in data set [2] (male, CD-1, mouse, plasma, 2 h, Plasma, read-out: Mean (plasma)); 404 ng/mL in data set [2] (male, CD-1, mouse, plasma, 2 hr, Plasma, individual, read-out: Plasma Concentration). Also, in data set [3], the half-life was 1.55 h.
